In patent US7638055B2, “Sludge quality” (Rhodia Operations, priority 2004, dated 2009):
Where two headings read alike, the source gives them in different places.

Tests used:
[1] = test system: filamentous bacteria in the sludge; conditions: 2 and 4 mg/l/day Compound X, flash mixing, vs untreated control, 52 day experiment
Excerpt: (§1) A series of semi-continuous chemostat reactors was constructed to simulate wastewater treatment processes.
(§2) The central part of the equipment is the biological chemostat reactor 1. The reactor vessel 2 is made of glass, with an internal volume of 10 liters and is fitted with pH 3 and dissolved oxygen 4 sensors and an air sparge 5. This contains the sludge, which is, essentially, a mass of typical wastewater treatment microorganisms. The reactor operates at an ambient temperature (approximately 20° C.).
(§3) Simulated wastewater 13 is contained in a separate vessel 6 and maintained at 4° C. to prevent microbial spoilage. It is transferred into the reactor via a supply line 7 and a peristaltic pump 8.
(§4) A recirculating line 9 is provided on the reactor comprising a length of flexible silicone tubing and a peristaltic pump 10. The peristaltic pump extracts the sludge from the reactor into the recirculation line. The candidate water-soluble biocide is introduced into this line 9 through a needle 11, which is fed by a syringe pump 12. Using this system it is possible to achieve “flash mixing” which ensures rapid contact of the water-soluble biocide with the sludge microorganisms. […]
(§5) Compound X was evaluated in the test. […] Two concentrations were evaluated: 2 and 4 milligrams per liter per day, as well as a control with no treatment by Compound X.

[2] = test system: protozoans and other higher organisms; conditions: 2 and 4 mg/l/day Compound X, treated sludge relative to untreated
Excerpt: as §1, §2, §3, §4, §5

[3] = test system: filamentous bacteria; conditions: for Observations (filamentous bacteria): sample 48 days after start up, magnification x220
Procedure: Samples were taken from the semi-continuous reactors described in Example 1, 48 days after the start up of the trial.
A sample of each of the Compound X concentrations tested in the reactors of Example 1 was evaluated in this test. Accordingly, samples with 2 and 4 milligrams per liter per day treatment of Compound X were tested, as well as a control with no treatment by Compound X.
The samples were observed through phase contrast microscope magnification×220.

## tetrakis(hydroxymethyl)phosphonium sulphate [Compound X]
[1]
  filamentous bacteria in the sludge: substantially absent
[2]
  concentration of protozoans and other higher organisms in the sludge: significantly higher concentration of protozoans and other higher organisms
[3]; 2 mg/l/day
  Observations (filamentous bacteria): No filamentous bacteria present,
[3]; 4 mg/l/day
  Observations (filamentous bacteria): No filamentous bacteria present,
[3]; two doses of 4 mg/l/day (4 mg/l dose on two consecutive days)
  reduction of filamentous bacteria and sludge settling: Reduction of filamentous bacteria and thus improved sludge settling
[3]; two doses of 4 mg/l/day, without further treatment
  level of filaments after treatment was stopped: remained low for more than one week
